Consider one molecule from US11802108B2, “Compounds for the modulation of cyclophilins function” (The University Court of The University of Edinburgh, priority 2018, dated 2023).

For orientation: Kd means the free concentration of one partner at which half of the binding sites on the other are occupied at equilibrium, for simple one-to-one binding. Low readings indicate a tighter complex, high ones a looser complex. A word on the GI50: it is the concentration that inhibits growth by half. Lower therefore signals more potent growth inhibition.

Series [1] deals with T1, CypA (Homo sapiens (Human), UniProt P62937). Kind of series: Isothermal titration calorimetry (ITC) binding to CypA. The note with it: 25° C. The protocol: All ITC experiments for the ester series compounds were carried out at 25° C. on a MicroCal Auto iTC200 (GE Healthcare) instrument. The buffer used in the titrations of the compounds belonging to the ester series was 50 mM phosphate buffer, pH 6.5 and the concentration of DMSO was 2% v/v for all the compounds, unless otherwise stated in Table 51. Final compound solutions were heated to 65° C. and/or sonicated prior to the experiment. Each experiment consisted of an initial injection of 0.4 μL followed by nineteen 2 μL injections and in most of cases for these compounds, the “continue injections” protocol was used leaving the cell intact and performing a second series of titrations using the above protocol to achieve saturation. Control experiments were performed, where each compound was titrated into buffer and when small amount of heat was detected due to heat of dilution, it was subtracted when processing the data using a linear fit method. In all cases the first injection was omitted from the data processing. All data were analysed using the MicroCal PEAQ-ITC Analysis software.
T1 sequence (P62937 whole entry): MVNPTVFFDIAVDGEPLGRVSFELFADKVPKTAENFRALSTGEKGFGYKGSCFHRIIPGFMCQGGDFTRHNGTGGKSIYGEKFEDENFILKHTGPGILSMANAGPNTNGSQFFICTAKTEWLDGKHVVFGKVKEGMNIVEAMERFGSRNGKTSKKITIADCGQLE
The buffer used for these titrations was: PBS, 0.05% v/v P20 surfactant, 50 μM EDTA in presence of 2% v/v EtOH and the pH was set to 7.4.
(In general: ITC needs no label: the signal is the heat of the interaction.)

Series [2] has as its target T1, CypA. Kind of series: X-ray co-crystal structure with CypA. Further: key: Y: observed in cocrystal; N: not observed in cocrystal. Format: binding. The note with it: apo CypA crystals soaked with 5 mM ligand. The protocol:
Purified and his-tag-cleaved CypA was buffer-exchanged into PBS and concentrated to ˜29 mg ml^−1. For crystallisation 1 μL of protein was mixed with an equal volume of the well solution, consisting of 100 mM Tris-HCl pH8.0 and 20-22% v/v PEG 8000, and crystal formation came about after equilibration overnight in 6° C. by vapour diffusion using the hanging drop method over 1 mL of the same well solution. Apo CypA crystals were soaked overnight into different ligand solution consisting of 100 mM Tris-HCl pH 8.0, 35% w/v PEG 8000, 5% v/v Glycerol, 5% v/v DMSO and 5 mM ligand, before flash frozen into liquid nitrogen. X-ray data were collected at the Diamond synchrotron-radiation facility in Oxford-shire, England at 100K. Structures were solved by molecular replacement using DIMPLE from the CCP4i suite. Modelled structures were visualised and manually adjusted as needed using Coot10 and further refined using REFMAC5 from CCP4i.
FIG. 1A summarises the mode of binding of certain prior-art urea small molecule Cyp inhibitors.

For series [3], the target named is T1, CypA. Briefly: Surface plasmon resonance (SPR) binding to His-CypA. The following applies: 25° C., triplicate. The procedure: (§1) SPR measurements were performed on a BIAcore T200 instrument (GE Healthcare). Ni^2+-nitrilotriacetic acid (NTA) sensor chips, 1-ethyl-3-(3-[…]) carbodiimide hydrochloride (EDC) and Nhydroxysuccinimide (NHS) were purchased from GE Healthcare.
(§2) Pure His-cyclophilins were immobilized and covalently stabilized on the NTA sensor chip according to the protocol described in Thermo-kinetic analysis space expansion for cyclophilin-ligand interactions—identification of a new nonpeptide inhibitor using Biacore T200.
(§3) Single cycle kinetic titration binding experiments were performed using SPR in triplicate at 25° C. […] The sensor surface was regenerated between experiments by dissociating any formed complex in running buffer for at least 1,200 seconds.
(§4) Kinetic titration binding experiments were performed in triplicate at 25° C. […] The sensor surface was regenerated between experiments by dissociating any formed complex in running buffer for at least a further 600 seconds.
(In general: In SPR one partner is held on a chip, and binding of the other changes the refractive index at the surface.)

The target in a further series is CypB (Homo sapiens (Human), UniProt P23284). Briefly: Surface plasmon resonance (SPR) binding to His-CypB. The following applies: 25° C., triplicate. The procedure:
as §3, §4

For a further series, the target named is CypD (Homo sapiens (Human), UniProt P30405). Briefly: Surface plasmon resonance (SPR) binding to His-CypD. The following applies: 25° C., triplicate. The protocol: as §1, §2, §3, §4
Sequence of CypD (P30405 30-207): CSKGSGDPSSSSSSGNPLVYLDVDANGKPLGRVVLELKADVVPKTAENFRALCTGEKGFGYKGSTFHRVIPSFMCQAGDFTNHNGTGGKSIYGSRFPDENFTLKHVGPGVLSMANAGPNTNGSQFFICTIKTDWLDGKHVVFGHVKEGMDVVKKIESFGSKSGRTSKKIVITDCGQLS
The subject of series [4] is MDA-MB-231 cells. Kind of series: Growth inhibition (GI50) of MDA-MB-231 cells, IncuCyte imaging. Format: cell-based. The note with it: Homo sapiens; MDA-MB-231, 120 hours imaging. The procedure:
(§5) The latter medium with 2000 U/mL IL-2 was used for NK92 cell killing assays.
(§6) To determine the direct effect of the compounds on cell proliferation, cells were seeded at a density of 500 cells per well in cell culture medium in 384-well cell culture plates and allowed to adhere overnight (about 16 hours), incubated in a humidified atmosphere with 5% CO2. Subsequently, cell culture medium was refreshed, supplemented with Draq 7 (3 μM final concentration) and test compound at the indicated concentrations with three wells being treated for each condition tested. Cells were then returned to the cell culture incubator and imaged with a 10× objective every 3 hours for 120 hours using an IncuCyte ZOOM microscope from Essen Bioscience.
(§7) Using the IncuCyte ZOOM software, custom image analysis procedures were developed and applied for each cell line to determine cell confluency, cell number and number of dead cells over the time course of the experiment.
(§8) Statistical analyses in cell viability assays to compare the effect of compound treatment to treatment with vehicle were performed using GraphPad Prism 6 (2-way ANOVA with Bonferroni correction post hoc).

Series [5] concerns MDA-MB-231 cells. Kind of series: Cytotoxicity (cell death, Draq7) in MDA-MB-231 cells. Format: cell-based. The protocol: as §5, §6, §7, §8
A further series concerns IMR-90 cells. Briefly: Cytotoxicity (cell death, Draq7) in IMR-90 cells. Format: cell-based. The protocol:
as §5, §6, §7, §8

The test system of series [6] is MDA-MB-231 cells in presence of NK92 cells. Kind of series: NK92 immune cell killing of MDA-MB-231 cancer cells. In kind it is cell-based. The note with it: with NK92 cells. The procedure:
as §5
(§9) NK92 cells were then added at a density of 1000 cells per well and 10 μM test compound was added. Cells were imaged with a 10× objective every 3 hours for 120 hours using an IncuCyte ZOOM microscope from Essen Bioscience.
(§10) Apoptotic fraction of the population (number of nuclei with co-localized red and green fluorescence divided by total number of red nuclei in the population) and fold increase in number of red nuclei were determined at various time points.

The next series concerns NK92 cells. Briefly: Proliferation of NK92 cells. Format: cell-based. The protocol: as §5, §9, §10

Sequence of CypB (P23284 34-216): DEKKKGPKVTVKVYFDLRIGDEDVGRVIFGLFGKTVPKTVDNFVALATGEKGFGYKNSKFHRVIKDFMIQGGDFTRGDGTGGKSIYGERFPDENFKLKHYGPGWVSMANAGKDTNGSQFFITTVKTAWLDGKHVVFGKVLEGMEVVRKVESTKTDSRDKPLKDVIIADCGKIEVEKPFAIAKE

On to `C#CCN(Cc1ccc(N)cc1)C(=O)NCC(=O)N1CCCC1c1ccccc1Br.Cl` (centres unmarked) [Compound 1, 1-[(4-aminophenyl)methyl]-3-{2-[2-(2-bromophenyl)pyrrolidin-1-yl]-2-oxoethyl}-1-(prop-2-yn-1-yl)urea hydrochloride], for which the dissociation constant Kd is 2000 ± 1000 nM on CypA [1], 3200 ± 1300 nM on CypA [3], 1400 ± 400 nM at CypB and 200 ± 100 nM at CypD. The “CypA X-ray co-crystal” value on CypA [2] is given as “Y”. This molecule also showed a GI50 in the series on MDA-MB-231 cells [4] of 5100 ± 900 nM. Besides, the “Toxicity MDA-MB-231 @10 μM” value with MDA-MB-231 cells [5] was “N”. For the same molecule, the “Toxicity IMR-90 @10 μM” value in the series on IMR-90 cells is recorded as “N”. In addition, in [6], the “Apoptotic fraction of the MDA-MB-231 population in the presence of NK92 cells after 72 h @ 10 μM” value was 0.64 ± 0.03. For the same molecule, the “Fold increase MDA-MB-231 cells in presence of NK92 cells after 72 h @ 10 μM” value in series [6] worked out at 2.0 ± 0.3. Moreover, the “Fold increase in NK92 cells after 72 h @ 10 μM” value in the series with NK92 cells is on record as 4.3 ± 0.7.
